From ChEMBL document CHEMBL1201862, “PubChem BioAssay data set” (2004)
The source made the active and inactive calls.

Tests used:
[1] = viability of PTEN-deleted HCT116 cells – cell-based, HCT116 PTEN knockout, dose response (AID 1047); assay type: functional;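 further: HCT116 colon tumor cells with PTEN knocked out; cells exposed to compound for 60 hours before readout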
CHO = CHO cell viability loss, potency – luminescence, cytotoxicity control for TLR9-MyD88 binding inhibitor project, dose response (AID 588339); assay type: functional, cell-based, hamster; details: Cricetulus griseus;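 further: CHO cells stably coexpressing TLR9 and MyD88 fusions from primary screen; compound exposure lasted 48 hours before viability readout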
[2] = viability of HCT116 lacking mutant beta-catenin – cell-based, human colon tumor, dose response (AID 1045); assay type: functional;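 further: HCT116 colon tumor cells with beta catenin knocked out; cells exposed to compound for 60 hours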
Beta Lactamase = Beta Lactamase (Pseudomonas aeruginosa, UniProt Q932Y6); assay: BLA reporter interference, concentration series – BLA reporter cells, FRET fluorescence, artefact control for TLR9-MyD88 binding inhibitor project, dose response (AID 588341); assay type: cell-based;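 further: cell based assay in CHO-K1 cells stably expressing beta-lactamase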
[3] = target: T1, Sentrin-specific protease 7 (Homo sapiens, UniProt Q9BQF6); assay: inhibition of human SENP7 cleavage activity – biochemical, luminescence, SAR follow-up (AID 504497); assay type: functional
T1 sequence (Q9BQF6 whole entry): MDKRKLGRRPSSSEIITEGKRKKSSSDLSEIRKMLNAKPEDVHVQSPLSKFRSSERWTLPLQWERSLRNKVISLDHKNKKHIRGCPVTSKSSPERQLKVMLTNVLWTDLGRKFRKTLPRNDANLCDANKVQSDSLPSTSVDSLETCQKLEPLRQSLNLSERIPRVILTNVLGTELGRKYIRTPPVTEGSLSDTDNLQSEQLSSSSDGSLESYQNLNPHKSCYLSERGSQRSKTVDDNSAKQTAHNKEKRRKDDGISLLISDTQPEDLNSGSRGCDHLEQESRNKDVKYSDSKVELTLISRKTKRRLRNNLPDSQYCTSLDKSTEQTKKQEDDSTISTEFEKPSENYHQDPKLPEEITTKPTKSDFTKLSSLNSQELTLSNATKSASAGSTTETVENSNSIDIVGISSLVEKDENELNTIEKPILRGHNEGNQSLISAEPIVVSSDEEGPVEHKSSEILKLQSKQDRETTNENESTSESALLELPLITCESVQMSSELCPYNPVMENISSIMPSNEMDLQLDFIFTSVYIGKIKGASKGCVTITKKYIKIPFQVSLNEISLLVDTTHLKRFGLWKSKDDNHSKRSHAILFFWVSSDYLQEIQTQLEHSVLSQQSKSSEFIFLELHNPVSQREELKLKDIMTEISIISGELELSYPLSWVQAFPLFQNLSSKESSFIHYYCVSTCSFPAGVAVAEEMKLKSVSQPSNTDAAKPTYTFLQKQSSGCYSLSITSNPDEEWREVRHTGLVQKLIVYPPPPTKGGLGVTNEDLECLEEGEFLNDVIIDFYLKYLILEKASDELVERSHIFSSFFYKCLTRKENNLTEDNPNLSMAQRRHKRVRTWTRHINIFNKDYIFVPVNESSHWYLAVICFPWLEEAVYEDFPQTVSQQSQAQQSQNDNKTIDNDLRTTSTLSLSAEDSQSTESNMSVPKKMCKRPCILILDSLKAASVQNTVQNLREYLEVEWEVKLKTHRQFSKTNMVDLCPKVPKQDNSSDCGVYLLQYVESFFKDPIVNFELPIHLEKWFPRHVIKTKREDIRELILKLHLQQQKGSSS

[4] = target: T2, Sentrin-specific protease 8 (Homo sapiens, UniProt Q96LD8); assay: inhibition of human SENP8 cleavage activity – biochemical, luminescence, SAR follow-up (AID 504501); assay type: functional
T2 sequence (Q96LD8 whole entry): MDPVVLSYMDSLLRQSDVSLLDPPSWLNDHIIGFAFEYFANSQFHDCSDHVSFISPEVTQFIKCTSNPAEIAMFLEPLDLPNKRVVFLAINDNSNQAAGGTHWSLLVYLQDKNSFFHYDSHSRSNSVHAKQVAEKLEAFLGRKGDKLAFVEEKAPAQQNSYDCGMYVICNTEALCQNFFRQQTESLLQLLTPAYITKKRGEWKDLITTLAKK

Caspase-3 = target: T3, Caspase-3 (Homo sapiens, UniProt P42574); assay: SAR Analysis of small molecule inhibitors of Sentrin-specific proteases (SENPs) using a Caspase-3 Selectivity assay. [Related pubchem assays (depositor defined):AID2540, AID2599, AID434973, AID489001]; assay type: functional
T3 sequence (P42574 whole entry): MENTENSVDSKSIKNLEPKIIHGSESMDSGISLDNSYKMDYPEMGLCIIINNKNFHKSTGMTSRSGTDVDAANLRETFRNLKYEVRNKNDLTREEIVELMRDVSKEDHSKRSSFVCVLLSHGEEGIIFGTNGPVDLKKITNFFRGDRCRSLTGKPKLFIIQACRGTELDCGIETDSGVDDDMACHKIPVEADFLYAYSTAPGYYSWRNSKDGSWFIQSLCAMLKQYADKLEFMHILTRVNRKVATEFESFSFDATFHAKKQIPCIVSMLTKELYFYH

[5] = target: T4, Sentrin-specific protease 6 (Homo sapiens, UniProt Q9GZR1); assay: SAR Analysis of small molecule inhibitors of Sentrin-specific protease 6 (SENP6) using a Luminescent assay. [Related pubchem assays (depositor defined):AID2582, AID2599]; assay type: functional
T4 sequence (Q9GZR1 whole entry): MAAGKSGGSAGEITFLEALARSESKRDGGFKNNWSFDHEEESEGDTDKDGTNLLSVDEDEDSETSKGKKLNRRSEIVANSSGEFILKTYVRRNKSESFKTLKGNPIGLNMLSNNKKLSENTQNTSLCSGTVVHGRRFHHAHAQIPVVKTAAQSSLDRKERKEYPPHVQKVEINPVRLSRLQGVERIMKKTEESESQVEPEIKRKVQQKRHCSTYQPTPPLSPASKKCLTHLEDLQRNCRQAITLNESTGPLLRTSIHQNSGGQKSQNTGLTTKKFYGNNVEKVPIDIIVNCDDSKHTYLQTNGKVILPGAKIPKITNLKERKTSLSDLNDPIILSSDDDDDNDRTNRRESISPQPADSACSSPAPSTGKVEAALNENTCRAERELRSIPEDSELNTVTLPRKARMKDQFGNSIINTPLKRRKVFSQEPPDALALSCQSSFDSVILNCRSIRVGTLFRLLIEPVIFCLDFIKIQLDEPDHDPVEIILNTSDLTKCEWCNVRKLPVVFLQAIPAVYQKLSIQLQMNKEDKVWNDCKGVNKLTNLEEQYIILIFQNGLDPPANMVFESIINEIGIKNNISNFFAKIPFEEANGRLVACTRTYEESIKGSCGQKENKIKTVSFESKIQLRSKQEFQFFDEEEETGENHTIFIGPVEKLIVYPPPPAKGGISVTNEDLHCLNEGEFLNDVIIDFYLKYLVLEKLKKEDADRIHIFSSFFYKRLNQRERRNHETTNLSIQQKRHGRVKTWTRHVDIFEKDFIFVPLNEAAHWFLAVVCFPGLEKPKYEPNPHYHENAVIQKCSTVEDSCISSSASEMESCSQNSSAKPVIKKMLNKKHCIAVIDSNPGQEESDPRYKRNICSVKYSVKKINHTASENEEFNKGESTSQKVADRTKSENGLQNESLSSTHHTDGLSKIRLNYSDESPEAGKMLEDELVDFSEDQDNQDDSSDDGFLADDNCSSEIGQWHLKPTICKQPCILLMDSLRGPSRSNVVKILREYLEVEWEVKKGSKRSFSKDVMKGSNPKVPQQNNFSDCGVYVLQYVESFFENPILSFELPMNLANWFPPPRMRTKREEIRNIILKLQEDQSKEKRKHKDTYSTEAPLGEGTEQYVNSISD

DNA topoisomerase = DNA topoisomerase (Yersinia pestis, UniProt A0A2S9PM60); assay: Yersinia topoisomerase I cleavage product accumulation – biochemical, cherry-pick, dose response (AID 588525)
DNA topoisomerase, sequence (A0A2S9PM60 whole entry): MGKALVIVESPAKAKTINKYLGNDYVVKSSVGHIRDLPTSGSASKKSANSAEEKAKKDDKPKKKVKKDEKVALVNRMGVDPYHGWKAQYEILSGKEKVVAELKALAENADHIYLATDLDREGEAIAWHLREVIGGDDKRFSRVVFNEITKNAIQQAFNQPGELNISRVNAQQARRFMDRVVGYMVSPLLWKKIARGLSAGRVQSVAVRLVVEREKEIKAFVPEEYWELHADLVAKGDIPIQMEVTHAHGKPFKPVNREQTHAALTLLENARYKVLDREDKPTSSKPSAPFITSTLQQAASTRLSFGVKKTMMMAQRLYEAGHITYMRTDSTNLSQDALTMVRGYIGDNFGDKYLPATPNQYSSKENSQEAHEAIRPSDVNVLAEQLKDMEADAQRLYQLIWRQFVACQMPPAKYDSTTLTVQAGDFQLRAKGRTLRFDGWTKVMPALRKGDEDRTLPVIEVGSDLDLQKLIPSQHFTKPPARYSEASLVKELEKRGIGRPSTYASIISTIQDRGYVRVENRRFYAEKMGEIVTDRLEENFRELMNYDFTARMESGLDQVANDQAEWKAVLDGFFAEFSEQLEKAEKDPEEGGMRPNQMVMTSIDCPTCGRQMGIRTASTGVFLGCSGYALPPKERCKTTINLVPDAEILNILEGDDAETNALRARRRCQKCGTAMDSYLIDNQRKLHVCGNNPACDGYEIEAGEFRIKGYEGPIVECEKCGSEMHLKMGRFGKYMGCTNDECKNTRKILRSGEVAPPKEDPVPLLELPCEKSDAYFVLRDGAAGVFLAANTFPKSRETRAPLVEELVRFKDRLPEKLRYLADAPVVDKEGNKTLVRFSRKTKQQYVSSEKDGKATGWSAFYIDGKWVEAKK

Beta Lactamase, sequence (Q932Y6 whole entry): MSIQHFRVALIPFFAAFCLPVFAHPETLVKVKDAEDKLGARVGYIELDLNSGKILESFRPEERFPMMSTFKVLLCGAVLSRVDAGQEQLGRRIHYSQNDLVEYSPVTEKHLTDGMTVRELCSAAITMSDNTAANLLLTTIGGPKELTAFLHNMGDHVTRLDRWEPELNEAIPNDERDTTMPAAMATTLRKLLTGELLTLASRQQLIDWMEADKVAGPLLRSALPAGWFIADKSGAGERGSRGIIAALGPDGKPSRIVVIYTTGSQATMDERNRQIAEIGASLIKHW

O=C(/C=C/c1cn(CC(O)CN2CCCCCC2)c2ccccc12)c1cccs1 (centres undefined)
EC50 [1]: 14.1 µM (active) | IC50 (CHO): 20.1 µM (inactive) | EC50 [2]: 11.9 µM (active) | IC50 (Beta Lactamase): 8.35 µM (active)

Cc1cccc(-c2nc(/C=C/c3ccc(F)cc3)no2)c1
IC50 [3]: > 99 µM (inactive) | IC50 [4]: > 99 µM (inactive) | IC50 (Caspase-3): > 99 µM (inactive) | IC50 [5]: > 99 µM (inactive)

CC(C)C(=O)N1CCN(c2nc(-c3ccc(Cl)cc3)cs2)CC1
AC50 (DNA topoisomerase): 1.72 µM (active)
